In patent US20250325689A1, “ANTIBODY-MULTIDRUG CONJUGATE” (UBE CORPORATION, priority 2022, published 2025):
Starred links: 1 amine or outer side, 2 acyl side, 3 side chain; linkers in the order of their positions; H or OH if unused. Non-standard residues stand in square brackets, D forms with d. Residues, ends and D or L forms follow the SMILES beside them. *: point of attachment. Dolaproine = CO[C@@H]([C@@H]1CCCN1)[C@@H](C)C(=O)O; X2 = C[C@@H](N[*:1])[C@@H](OC(=O)[*:2])c1ccccc1; Dil = CC[C@H](C)[C@H](NC)[C@@H](CC(=O)O)OC; X4 = OCC1OC(n2cc(CN*)nn2)C(O)C(O)C1O; NMeV = CN[C@H](C(=O)O)C(C)C

Molecular target: T1, porcine tubulin (Sus scrofa, UniProt P02550+P02554)
T1 construct: purchased Cytoskeleton, Inc. BKO11P
T1 sequence (P02550 whole entry): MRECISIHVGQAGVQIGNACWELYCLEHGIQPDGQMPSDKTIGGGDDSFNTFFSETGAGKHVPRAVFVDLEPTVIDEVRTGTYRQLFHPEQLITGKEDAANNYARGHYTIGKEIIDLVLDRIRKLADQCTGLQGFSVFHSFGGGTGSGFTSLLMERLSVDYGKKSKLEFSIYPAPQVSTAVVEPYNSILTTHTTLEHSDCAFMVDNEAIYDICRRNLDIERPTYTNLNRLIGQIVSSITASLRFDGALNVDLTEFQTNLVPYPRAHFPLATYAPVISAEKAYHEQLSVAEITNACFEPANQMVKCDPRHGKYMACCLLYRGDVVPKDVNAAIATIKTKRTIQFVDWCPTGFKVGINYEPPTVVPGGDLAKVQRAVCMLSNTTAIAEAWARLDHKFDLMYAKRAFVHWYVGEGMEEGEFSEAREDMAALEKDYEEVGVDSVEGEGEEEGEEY
T1 sequence (P02554 whole entry): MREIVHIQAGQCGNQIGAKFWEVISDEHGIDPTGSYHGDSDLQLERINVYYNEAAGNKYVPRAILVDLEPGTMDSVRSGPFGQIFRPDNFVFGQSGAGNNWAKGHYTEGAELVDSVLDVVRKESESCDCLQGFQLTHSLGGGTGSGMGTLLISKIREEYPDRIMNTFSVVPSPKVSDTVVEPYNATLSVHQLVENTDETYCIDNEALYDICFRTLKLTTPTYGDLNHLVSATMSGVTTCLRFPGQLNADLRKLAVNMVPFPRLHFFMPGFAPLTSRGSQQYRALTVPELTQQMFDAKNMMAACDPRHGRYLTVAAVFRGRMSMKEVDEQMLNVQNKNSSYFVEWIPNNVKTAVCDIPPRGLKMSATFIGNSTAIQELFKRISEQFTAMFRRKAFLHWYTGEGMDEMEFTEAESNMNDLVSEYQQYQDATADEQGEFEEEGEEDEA
Test: Tubulin polymerization inhibition test
Assay type: biochemical
Conditions: 37° C., fluorescence measured for 60 minutes
Description: For measuring the tubulin polymerization inhibitory action, Tubulin Polymerization Assay Kit (manufactured by Cytoskeleton, Inc., BKO11P) was used. A PIPES buffer containing porcine tubulin, GTP, MgCl2, EGTA, Glycerol, and a fluorescent reporter was prepared under ice-cooling as a reaction solution. The reaction solution was ice-cooled until it was used. A test compound solution was prepared by an aqueous solution containing 1.5% DMSO, and added to a 96 well plate (manufactured by Corning Inc., 3686) at 5 μL/well. The reaction solution was added thereto at 50 μL/well, the plate was placed in a microplate reader (FlexStation 3, manufactured by Molecular Device, LLC) in which the internal temperature was set to 37° C. in advance, and the fluorescence intensity measurement (excitation wavelength: 360 nm, detection wavelength: 420 nm) of each well was started. The fluorescence intensity was measured once every minute, and the measurement was continued for 60 minutes.
The tubulin polymerization inhibition rate (%) was calculated by the following equation. […]

SMILES: CC[C@H](C)[C@@H]([C@@H](CC(=O)N1CCC[C@H]1[C@H](OC)[C@@H](C)C(=O)N[C@H](C)[C@@H](OC(=O)NCc1cn(C2OC(CO)C(O)C(O)C2O)nn1)c1ccccc1)OC)N(C)C(=O)[C@@H](NC(=O)[C@@H](NC)C(C)C)C(C)C (stereo partly shown) [Example U-018] (H-[NMeV]V[Dil][Dolaproine][X2]-X4)
- IC50: ≤ 3 µM
